# Patent publication US9708314B2, “Heterocyclic amide compound” (NISSAN CHEMICAL INDUSTRIES, LTD., priority 2013, dated 2017)
# Legend:
# Type in all cases: in vivo
# Scirpus juncoides = assay: Test Example 1: herbicidal activity, application before weed generation in submerged conditions; conditions: Application herbicide amount 320 g/ha; Seventeenth Table
# Summary of the method: (§1)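 Pre-emergence water-surface application under 4 cm flooding, same day as sowing, with rice transplanted at 2.5 leaf stage. Dose given as g/ha. Plants grown at 25° C. to 30° C. and rated three weeks later on a 0 (≤5%) to 5 (≥90%) herbicidal-ratio scale.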
# [1] = test system: Echinochloa oryzacola Vasing.; assay: as above; conditions: Application herbicide amount 320 g/ha; Seventeenth Table
# Summary of the method: as §1
# Monochoria vaginalis = assay: as above; conditions: Application herbicide amount 320 g/ha; Seventeenth Table
# Summary of the method: as §1
# Setaria viridis = assay: Test Example 4: herbicidal effect by application to foliage (diluvial soil, plastic box); conditions: for G (Setaria viridis) herbicidal effect: application to foliage, application herbicide amount 320 g/ha; for G: Application herbicide amount 320 g/ha
# Summary of the method: (§2)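 Seeds sown in sterilized diluvial soil, covered ~1.5 cm, grown 14 days in greenhouse at 25° C. to 30° C. Emulsion formulation diluted in water to set rate (g/ha) and sprayed onto stems and leaves. Effect scored visually 3 weeks later on 0–5 scale (5 = ≥90% herbicidal ratio, 0 = ≤5%).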
# Lolium multiflorum Lam. = assay: as above; conditions: for K (Lolium multiflorum Lam.) herbicidal effect: application to foliage, application herbicide amount 320 g/ha; for K: Application herbicide amount 320 g/ha
# Summary of the method: as §2
# Galium spurium = assay: as above; conditions: for Q (Galium spurium) herbicidal effect: application to foliage, application herbicide amount 320 g/ha; for Q: Application herbicide amount 320 g/ha
# Summary of the method: as §2
# [2] = test system: Echinochloa crus-galli var. crus-galli; assay: as above; conditions: for H (Echinochloa crus-galli var. crus-galli) herbicidal effect: application to foliage, application herbicide amount 320 g/ha; for H: Application herbicide amount 320 g/ha
# Summary of the method: as §2
# Digitaria ciliaris = assay: as above; conditions: for F (Digitaria ciliaris) herbicidal effect: application to foliage, application herbicide amount 320 g/ha; for F: Application herbicide amount 320 g/ha
# Summary of the method: as §2
# Alopecurus myosuroides = assay: as above; conditions: for J (Alopecurus myosuroides) herbicidal effect: application to foliage, application herbicide amount 320 g/ha; for J: Application herbicide amount 320 g/ha
# Summary of the method: as §2
# Avena fatua = assay: as above; conditions: for I (Avena fatua) herbicidal effect: application to foliage, application herbicide amount 320 g/ha; for I: Application herbicide amount 320 g/ha
# Summary of the method: as §2
# Veronica persica = assay: as above; conditions: for R (Veronica persica) herbicidal effect: application to foliage, application herbicide amount 320 g/ha; for R: Application herbicide amount 320 g/ha
# Summary of the method: as §2
# Apera spica-venti. = assay: as above; conditions: for L (Apera spica-venti.) herbicidal effect: application to foliage, application herbicide amount 320 g/ha; for L: Application herbicide amount 320 g/ha
# Summary of the method: as §2
# Abutilon theophrasti = assay: as above; conditions: for M (Abutilon theophrasti) herbicidal effect: application to foliage, application herbicide amount 320 g/ha; for M: Application herbicide amount 320 g/ha
# Summary of the method: as §2
# Chenopodium album = assay: as above; conditions: for O (Chenopodium album) herbicidal effect: application to foliage, application herbicide amount 320 g/ha; for O: Application herbicide amount 320 g/ha
# Summary of the method: as §2
SMILES,B: Scirpus juncoides (herbicidal effect grade) (Scirpus juncoides),A: Echinochloa oryzicola Vasing. (herbicidal effect grade) [1],C: Monochoria vaginalis (herbicidal effect grade) (Monochoria vaginalis),G (Setaria viridis),K (Lolium multiflorum Lam.),Q (Galium spurium),H [2],F (Digitaria ciliaris),J (Alopecurus myosuroides),I (Avena fatua),R (Veronica persica),L (Apera spica-venti.),M (Abutilon theophrasti),O (Chenopodium album),also measured
COCCc1nnc(NC(=O)c2ccc(C(F)(F)F)n3c(C(C)C)nnc23)o1 [1-052],3 (Herbicidal ratio of 40% or more and less than 70%),3 (Herbicidal ratio of 40% or more and less than 70%),2 (Herbicidal ratio of 20% or more and less than 40%),,,,,,,,,,,,G (Setaria viridis) herbicidal effect (Setaria viridis): 1 (Herbicidal ratio of 5% or more and less than 20%); K (Lolium multiflorum Lam.) herbicidal effect (Lolium multiflorum Lam.): 1 (Herbicidal ratio of 5% or more and less than 20%); Q (Galium spurium) herbicidal effect (Galium spurium): 1 (Herbicidal ratio of 5% or more and less than 20%); H (Echinochloa crus-galli var. crus-galli) herbicidal effect [2]: 2 (Herbicidal ratio of 20% or more and less than 40%); F (Digitaria ciliaris) herbicidal effect (Digitaria ciliaris): 3 (Herbicidal ratio of 40% or more and less than 70%); J (Alopecurus myosuroides) herbicidal effect (Alopecurus myosuroides): 1 (Herbicidal ratio of 5% or more and less than 20%); I (Avena fatua) herbicidal effect (Avena fatua): 0 (Herbicidal ratio of 5% or less (almost no effect)); R (Veronica persica) herbicidal effect (Veronica persica): 3 (Herbicidal ratio of 40% or more and less than 70%); L (Apera spica-venti.) herbicidal effect (Apera spica-venti.): 3 (Herbicidal ratio of 40% or more and less than 70%); M (Abutilon theophrasti) herbicidal effect (Abutilon theophrasti): 4 (Herbicidal ratio of 70% or more and less than 90%); O (Chenopodium album) herbicidal effect (Chenopodium album): 5 (Herbicidal ratio of 90% or more (almost completely withered))
Cc1nnc(NC(=O)c2ccc(C(F)F)n3c(C(C)C)nnc23)o1 [1-053],3 (Herbicidal ratio of 40% or more and less than 70%),2 (Herbicidal ratio of 20% or more and less than 40%),2 (Herbicidal ratio of 20% or more and less than 40%),,,,,,,,,,,,G (Setaria viridis) herbicidal effect (Setaria viridis): 2 (Herbicidal ratio of 20% or more and less than 40%); K (Lolium multiflorum Lam.) herbicidal effect (Lolium multiflorum Lam.): 0 (Herbicidal ratio of 5% or less (almost no effect)); Q (Galium spurium) herbicidal effect (Galium spurium): 2 (Herbicidal ratio of 20% or more and less than 40%); H (Echinochloa crus-galli var. crus-galli) herbicidal effect [2]: 3 (Herbicidal ratio of 40% or more and less than 70%); F (Digitaria ciliaris) herbicidal effect (Digitaria ciliaris): 3 (Herbicidal ratio of 40% or more and less than 70%); J (Alopecurus myosuroides) herbicidal effect (Alopecurus myosuroides): 0 (Herbicidal ratio of 5% or less (almost no effect)); I (Avena fatua) herbicidal effect (Avena fatua): 1 (Herbicidal ratio of 5% or more and less than 20%); R (Veronica persica) herbicidal effect (Veronica persica): 4 (Herbicidal ratio of 70% or more and less than 90%); L (Apera spica-venti.) herbicidal effect (Apera spica-venti.): 0 (Herbicidal ratio of 5% or less (almost no effect)); M (Abutilon theophrasti) herbicidal effect (Abutilon theophrasti): 4 (Herbicidal ratio of 70% or more and less than 90%); O (Chenopodium album) herbicidal effect (Chenopodium album): 5 (Herbicidal ratio of 90% or more (almost completely withered))
Cc1nnc(NC(=O)c2ccc(C(F)(F)F)n3c(-c4ccc(Cl)nc4)nnc23)o1 [1-054],3 (Herbicidal ratio of 40% or more and less than 70%),5 (Herbicidal ratio of 90% or more (almost completely withered)),4 (Herbicidal ratio of 70% or more and less than 90%),4 (Herbicidal ratio of 70% or more and less than 90%),3 (Herbicidal ratio of 40% or more and less than 70%),4 (Herbicidal ratio of 70% or more and less than 90%),5 (Herbicidal ratio of 90% or more (almost completely withered)),5 (Herbicidal ratio of 90% or more (almost completely withered)),3 (Herbicidal ratio of 40% or more and less than 70%),3 (Herbicidal ratio of 40% or more and less than 70%),5 (Herbicidal ratio of 90% or more (almost completely withered)),3 (Herbicidal ratio of 40% or more and less than 70%),5 (Herbicidal ratio of 90% or more (almost completely withered)),5 (Herbicidal ratio of 90% or more (almost completely withered)),
Cc1nnc(NC(=O)c2ccc(C(F)(F)F)n3c(-c4cccc(Cl)n4)nnc23)o1 [1-055],4 (Herbicidal ratio of 70% or more and less than 90%),4 (Herbicidal ratio of 70% or more and less than 90%),4 (Herbicidal ratio of 70% or more and less than 90%),3 (Herbicidal ratio of 40% or more and less than 70%),2 (Herbicidal ratio of 20% or more and less than 40%),2 (Herbicidal ratio of 20% or more and less than 40%),4 (Herbicidal ratio of 70% or more and less than 90%),4 (Herbicidal ratio of 70% or more and less than 90%),3 (Herbicidal ratio of 40% or more and less than 70%),1 (Herbicidal ratio of 5% or more and less than 20%),4 (Herbicidal ratio of 70% or more and less than 90%),3 (Herbicidal ratio of 40% or more and less than 70%),5 (Herbicidal ratio of 90% or more (almost completely withered)),5 (Herbicidal ratio of 90% or more (almost completely withered)),
Cc1cc(-c2nnc3c(C(=O)Nc4nnc(C)o4)ccc(C(F)(F)F)n23)n(C)n1 [1-056],5 (Herbicidal ratio of 90% or more (almost completely withered)),5 (Herbicidal ratio of 90% or more (almost completely withered)),4 (Herbicidal ratio of 70% or more and less than 90%),5 (Herbicidal ratio of 90% or more (almost completely withered)),2 (Herbicidal ratio of 20% or more and less than 40%),4 (Herbicidal ratio of 70% or more and less than 90%),5 (Herbicidal ratio of 90% or more (almost completely withered)),5 (Herbicidal ratio of 90% or more (almost completely withered)),2 (Herbicidal ratio of 20% or more and less than 40%),3 (Herbicidal ratio of 40% or more and less than 70%),5 (Herbicidal ratio of 90% or more (almost completely withered)),3 (Herbicidal ratio of 40% or more and less than 70%),5 (Herbicidal ratio of 90% or more (almost completely withered)),5 (Herbicidal ratio of 90% or more (almost completely withered)),
Cc1nnc(NC(=O)c2ccc(C(F)(F)F)n3c(-c4cccs4)nnc23)o1 [1-057],5 (Herbicidal ratio of 90% or more (almost completely withered)),5 (Herbicidal ratio of 90% or more (almost completely withered)),4 (Herbicidal ratio of 70% or more and less than 90%),4 (Herbicidal ratio of 70% or more and less than 90%),2 (Herbicidal ratio of 20% or more and less than 40%),1 (Herbicidal ratio of 5% or more and less than 20%),4 (Herbicidal ratio of 70% or more and less than 90%),4 (Herbicidal ratio of 70% or more and less than 90%),2 (Herbicidal ratio of 20% or more and less than 40%),3 (Herbicidal ratio of 40% or more and less than 70%),5 (Herbicidal ratio of 90% or more (almost completely withered)),2 (Herbicidal ratio of 20% or more and less than 40%),5 (Herbicidal ratio of 90% or more (almost completely withered)),5 (Herbicidal ratio of 90% or more (almost completely withered)),
Cc1nnc(NC(=O)c2ccc(C(F)(F)F)n3c(-c4cncs4)nnc23)o1 [1-058],5 (Herbicidal ratio of 90% or more (almost completely withered)),5 (Herbicidal ratio of 90% or more (almost completely withered)),4 (Herbicidal ratio of 70% or more and less than 90%),5 (Herbicidal ratio of 90% or more (almost completely withered)),3 (Herbicidal ratio of 40% or more and less than 70%),2 (Herbicidal ratio of 20% or more and less than 40%),5 (Herbicidal ratio of 90% or more (almost completely withered)),5 (Herbicidal ratio of 90% or more (almost completely withered)),3 (Herbicidal ratio of 40% or more and less than 70%),3 (Herbicidal ratio of 40% or more and less than 70%),5 (Herbicidal ratio of 90% or more (almost completely withered)),2 (Herbicidal ratio of 20% or more and less than 40%),5 (Herbicidal ratio of 90% or more (almost completely withered)),5 (Herbicidal ratio of 90% or more (almost completely withered)),
